In US10829458B2 (Araxes Pharma LLC, priority 2015, dated 2020):

molecular target: T1, KRAS G12C 1-169, his-tagged protein, GDP-loaded (Homo sapiens, UniProt P01116, G12C); test: Biochemical assay: covalent modification of KRAS G12C measured by mass spectrometry (RapidFire/TOF or Q-Exactive); conditions: covalent binding to KRAS G12C; compounds of structure (I)
T1 construct: KRAS G12C 1-169, his-tagged protein, GDP-loaded
Experimental: Test compounds were prepared as 10 mM stock solutions in DMSO (Fisher cat #BP-231-100). KRAS G12C 1-169, his-tagged protein, GDP-loaded was diluted to 2 μm in buffer (20 mM Hepes, 150 mM NaCl, 1 mM MgCl2). Compounds were tested for activity as follows:
Compounds were diluted to 50× final test concentration in DMSO in 96-well storage plates. Compound stock solutions were vortexed before use and observed carefully for any sign of precipitation. Dilutions were as follow: • For 100 μM final compound concentration, compounds were diluted to 5000 μM (5 μl 10 mM compound stock+5 μl DMSO and mixed well by pipetting. • For 30 μM final compound concentration, compounds were diluted to 1500 μM (3 μl 10 mM compound stock+17p DMSO) and mixed well by pipetting. • For 10 μM final compound concentration, compounds were diluted to 500 μM (2 μl 10 mM compound stock+38p DMSO) and mixed well by pipetting. 49p of the stock protein solution was added to each well of a 96-well PCR plate (Fisher cat #1423027). 1 μl of the diluted 50× compounds were added to appropriate wells in the PCR plate using 12-channel pipettor. Reactions were mixed carefully and thoroughly by pipetting up/down with a 200·1 multi-channel pipettor. The plate was sealed well with aluminum plate seal, and stored in drawer at room temperature for 30 min, 2 hour or 24 hrs. 5·1 of 2% formic acid (Fisher cat #A117) in DI H2O was then added to each well followed by mixing with a pipette. The plate was then resealed with aluminum seal and stored on dry ice until analyzed as described below.
The above described assays were analyzed by mass spectrometry according to one of the following two procedures:
The MS instrument is set to positive polarity, 2 GHz resolution, and low mass (1700) mode and allowed to equilibrate for 30 minutes. The instrument is then calibrated, switched to acquisition mode and the appropriate method loaded.
After another 30 minute equilibration time, a blank batch (i.e., buffer) is run to ensure equipment is operating properly. The samples are thawed at 37° C. for 10 minutes, briefly centrifuged, and transfer to the bench top. Wells A1 and H12 are spiked with 1 uL 500 uM internal standard peptide, and the plates centrifuged at 2000×g for 5 minutes. The method is then run and masses of each individual well recorded.
The masses (for which integration data is desired) for each well are pasted into the platemap and exported from the analysis. Masses for the internal standards are exported as well. The data at 50 ppm is extracted for the +19 charge state, and identity of well A1 is assigned using the internal standard spike and integrated. Peak data is exported as a TOF list and the above steps are repeated individually, for the +20, 21, 22, 23, 24, and 25 charge states.
The masses and peak intensities of KRAS G12C protein species were measured using a Dionex RSLCnano system (Thermo Scientific) connected to a Q Exactive Plus mass spectrometer (Thermo Scientific).
[…] of sample was each loaded onto a Aeris™ 3.6 μm WIDEPORE C4 200 Å, LC Column 50×2.1 mm column maintained at 40° C. at a flow rate of 600 μl min^−1 with […] (0.1% formic acid in acetonitrile). The liquid chromatography conditions were 20% solvent B for 1 min, 20% to 60% solvent B for 1.5 min, 60% to 90% solvent for 0.5 min, 90% solvent B for 0.2 min, 90% to 20% solvent B for 0.2 min, and then equilibrated for 1.6 min before the following sample injection. The flow rate was maintained at 600 μl min^−1 throughout the sample analysis.
The mass spectrometer was operated in profile mode at a resolution of 17500, 5 microscans, using 50 msec max injection time and an AGC target of 1e6, and a full mass range from 800-1850 m/z was recorded. The HCD trapping gas was optimized for maximum sensitivity for intact proteins. […]

**Q.** For `C=CC(=O)N1CCN(c2nc(OCCN(CC)CC)nc3c(F)c(-c4c(O)cccc4F)c(Cl)cc23)CC1` (atropisomer, axis not shown) [Example I-88, (R)-1-(4-(6-chloro-2-(2-(diethylamino)ethoxy)-8-fluoro-7-(2-fluoro-6-hydroxyphenyl)quinazolin-4-yl)piperazin-1-yl) prop-2-en-1-one], which Binding % is on record?
**A.** + (+ indicates binding activity up to 50%)

**Q.** With `C=CC(=O)N1CCN(c2nc(N)nc3c(F)c(-c4cc(O)cc5ccccc45)c(Cl)cc23)CC1` [Example I-191, 1-(4-(2-amino-6-chloro-8-fluoro-7-(3-hydroxy-naphthalen-1-yl)quinazolin-4-yl)piperazin-1-yl) prop-2-en-1-one] as the compound, how does the Binding % read?
**A.** +++ (+++ indicates binding activity greater than 90%)

**Q.** For `C=CC(=O)N1CCN(c2nc(NC3CCN(C4CC4)CC3)nc3c(F)c(-c4c(C)cccc4O)c(Cl)cc23)CC1` [Example I-80, 1-(4-(6-chloro-2-(1-cyclopropyl-piperidin-4-ylamino)-8-fluoro-7-(2-hydroxy-6-methylphenyl)quinazolin-4-yl)piperazin-1-yl) prop-2-en-1-one], which Binding % is on record?
**A.** +++ (+++ indicates binding activity greater than 90%)

**Q.** For `C=CC(=O)N1CCN(c2nc(OCCN3CCOCC3)nc3c(F)c(-c4c(C)ccc5[nH]ncc45)c(Cl)cc23)CC1` (atropisomer, axis not shown) [Example I-31, (R)-1-(4-(6-chloro-8-fluoro-7-(5-methyl-1H-indazol-4-yl)-2-(2-morpholino-ethoxy)quinazolin-4-yl)piperazin-1-yl)prop-2-en-1-one], which Binding % is on record?
**A.** +++ (+++ indicates binding activity greater than 90%)

**Q.** With `C=CC(=O)N1CCN(c2nc(NCC3CCN(C4CC4)CC3)nc3c(F)c(-c4c(C)ccc5[nH]ncc45)c(Cl)cc23)CC1` [Example I-160, 1-(4-(6-chloro-2-((1-cyclo-propyl-piperidin-4-yl)methylamino)-8-fluoro-7-(5-methyl-1H-indazol-4-yl)quinazolin-4-yl)piperazin-l-yl) prop-2-en-1-one] as the compound, how does the Binding % read?
**A.** +++ (+++ indicates binding activity greater than 90%)

**Q.** With `C=CC(=O)N1CCN(c2nc(NC3CC4CCC(C3)N4C3CC3)nc3c(F)c(-c4c(C)ccc5[nH]ncc45)c(Cl)cc23)CC1` (stereo not drawn) [Example I-188, 1-(4-(6-chloro-2-((8-cyclopropyl-8-azabicyclo[3.2.1]octan-3-yl)amino)-8-fluoro-7-(5-methyl-1H-indazol-4-yl)quinazolin-4-yl)piperazin-1-yl) prop-2-en-1-one] as the compound, how does the Binding % read?
**A.** ++ (++ indicates binding activity from 50 to 90%)

**Q.** `C=CC(=O)N1CCN(c2nc(N3CC(N(C)C)C3)nc3c(F)c(-c4cc(O)cc5ccccc45)c(Cl)cc23)CC1` [Example I-106, 1-(4-(6-chloro-2-(3-(dimethyl-amino)azetidin-1-yl)-8-fluoro-7-(3-hydroxy-naphthalen-1-yl)quinazolin-4-yl)piperazin-1-yl) prop-2-en-1-one] was tested. Which Binding % did it give?
**A.** +++ (+++ indicates binding activity greater than 90%)

**Q.** `C=CC(=O)N1CCN(c2nc(NC3CCN(C4CC4)CC3)nc3c(F)c(-c4c(C)ccc5[nH]ncc45)c(Cl)cc23)CC1` (atropisomer, axis not shown) [Example I-81, (S)-1-(4-(6-chloro-2-(1-cyclopropyl-piperidin-4-ylamino)-8-fluoro-7-(5-methyl-1H-indazol-4-yl)quinazolin-4-yl)piperazin-1-yl)prop-2-en-1-one] was tested. Which Binding % did it give?
**A.** + (+ indicates binding activity up to 50%)

**Q.** Which Binding % does the source give for `C=CC(=O)N1CCN(c2nc(NCCc3ccccn3)nc3c(F)c(-c4c(O)cccc4F)c(Cl)cc23)CC1` [Example I-153, 1-(4-(6-chloro-8-fluoro-7-(2-fluoro-6-hydroxyphenyl)-2-(2-(pyridin-2-yl)ethylamino)quinazolin-4-yl)piperazin-1-yl) prop-2-en-1-one] here?
**A.** +++ (+++ indicates binding activity greater than 90%)

**Q.** For `C=CC(=O)N1CCN(c2nc(NCCF)nc3c(F)c(-c4cc(O)cc5ccccc45)c(Cl)cc23)CC1` [Example I-61, 1-(4-(6-chloro-8-fluoro-2-(2-fluoroethyl-amino)-7-(3-hydroxy-naphthalen-1-yl)quinazolin-4-yl)piperazin-1-yl)prop-2-en-1-one], which Binding % is on record?
**A.** +++ (+++ indicates binding activity greater than 90%)

**Q.** For `C=CC(=O)N1CCN(c2nc(OCCN(C)C)nc3c(F)c(-c4cc(O)cc5ccccc45)c(Cl)cc23)CC1` (atropisomer, axis not shown) [Example I-95, (S)-1-(4-(6-chloro-2-(2-(dimethylamino)ethoxy)-8-fluoro-7-(3-hydroxy-naphthalen-1-yl)quinazolin-4-yl)piperazin-1-yl)prop-2-en-1-one], which Binding % is on record?
**A.** +++ (+++ indicates binding activity greater than 90%)

**Q.** `C=CC(=O)N1CCN(c2nc(C(=O)N3CCOCC3)nc3c(F)c(-c4c(O)cccc4F)c(Cl)cc23)CC1` [Example I-49, 1-(4-(6-chloro-8-fluoro-7-(2-fluoro-6-hydroxyphenyl)-2-(morpholine-4-carbonyl)quinazolin-4-yl)piperazin-1-yl) prop-2-en-1-one] was tested. Which Binding % did it give?
**A.** +++ (+++ indicates binding activity greater than 90%)

**Q.** `C=CC(=O)N1CCN(c2nc(OCC3CCN(CC(F)(F)F)CC3)nc3c(F)c(-c4c(O)cccc4F)c(Cl)cc23)CC1` [Example I-35, 1-(4-(6-chloro-8-fluoro-7-(2-fluoro-6-hydroxyphenyl)-2-((1-(2,2,2-trifluoroethyl)piperidin-4-yl)methoxy)quinazolin-4-yl)piperazin-1-yl)prop-2-en-1-one] was tested. Which Binding % did it give?
**A.** ++ (++ indicates binding activity from 50 to 90%)

**Q.** `C=CC(=O)N1CCN(c2nc(CP(C)(C)=O)nc3c(F)c(-c4c(O)cccc4F)c(Cl)cc23)CC1` [Example I-209, 1-(4-(6-chloro-2-((dimethyl-phosphoryl)methyl)-8-fluoro-7-(2-fluoro-6-hydroxyphenyl)quinazolin-4-yl)piperazin-1-yl) prop-2-en-1-one] was tested. Which Binding % did it give?
**A.** ++ (++ indicates binding activity from 50 to 90%)

**Q.** With `C=CC(=O)N1CCN(c2nc(NCCN3CC(F)(F)C3)nc3c(F)c(-c4c(O)cccc4F)c(Cl)cc23)CC1` [Example I-143, 1-(4-(6-chloro-2-(2-(3,3-difluoro-azetidin-1-yl)ethylamino)-8-fluoro-7-(2-fluoro-6-hydroxyphenyl)quinazolin-4-yl)piperazin-1-yl) prop-2-en-1-one] as the compound, how does the Binding % read?
**A.** +++ (+++ indicates binding activity greater than 90%)

**Q.** Which Binding % does the source give for `C=CC(=O)N1CCN(c2nc(NC(=O)c3ccnc(C)c3)nc3c(F)c(-c4c(O)cccc4F)c(Cl)cc23)CC1` [Example I-181, N-(4-(4-acryloyl-piperazin-1-yl)-6-chloro-8-fluoro-7-(2-fluoro-6-hydroxyphenyl)quinazolin-2-yl)-2-methyliso-nicotinamide] here?
**A.** + (+ indicates binding activity up to 50%)

**Q.** `C=CC(=O)N1CCN(c2nc(COCc3ncccc3F)nc3c(F)c(-c4c(O)cccc4F)c(Cl)cc23)CC1` [Example I-210, 1-(4-(6-chloro-8-fluoro-7-(2-fluoro-6-hydroxyphenyl)-2-(((3-fluoro-pyridin-2-yl)methoxy)methyl)quinazolin-4-yl)piperazin-1-yl) prop-2-en-1-one] was tested. Which Binding % did it give?
**A.** +++ (+++ indicates binding activity greater than 90%)

same assay, conditions: covalent binding to KRAS G12C; compounds of structure (II)

**Q.** With `C=CC(=O)Nc1ncc(-c2ncnc3c(F)c(-c4c(O)cccc4F)c(Cl)cc23)s1` [II-13, N-(5-(6-chloro-8-fluoro-7-(2-fluoro-6-hydroxyphenyl)quinazolin-4-yl)thiazol-2-yl)acrylamide] as the compound, how does the Binding % read?
**A.** ++ (++ indicates binding activity greater than 50% and less than 75%)
